The source of these data is patent US4256640A, “Tetrahydrothiopyrano[2,3-b]indole derivatives” (Shionogi & Co., Ltd., priority 1978, dated 1981).

Data set [1] can be described thus: Acute toxicity, oral, rats (LD50). As to conditions: in vivo, rat, mortality on the 15th day. The procedure: b. JCL-Wistar female rats (180-220 g) are orally administered a suspension of test compound with gum arabic. The mortality on the 15th day is determined and the LD50 is calculated.
Data set [2] has as its system SLC-Wistar female rats. Kind of data set: Analgesic activity b: foot-licking method. Format: in vivo, rat. The note with it: read-out: Analgesic Activity b ED50.
The nature of data set [3]: Acute toxicity, oral, mice (LD50). The note with it: in vivo, mouse, mortality at 72 hours, P = presumption. The procedure:
a. DS male mice (20-25 g) are orally administered a suspension of test compound with gum arabic. The mortality at 72 hours is determined and the LD50 is calculated.

Data set [4] concerns JCL-Wistar female rats. Kind of data set: Anti-inflammatory activity: carrageenin foot edema. The format is in vivo. As to conditions: rat, oral, 50 mg/kg, 1.0% carrageenin, swelling 3 hours later. The procedure:
A 0.9% saline solution (0.05 ml) containing 1.0% carrageenin is used as phlogistic agent. After 30 minutes JCL-Wistar female rats (180-200 g) are orally administered a test compound, the phlogistic agent is injected subcutaneously into the plantar of the foots of the rats. The volume of swelling is measured 3 hours later and anti-edema activity is determined by calculating the percentage ratio of the edematous volume of medicated foot of that of non-medicated foot.
(Carrageenan injected into the paw causes an acute inflammation.)

For data set [5], the system named is DS male mice. Description: Analgesic activity a: acetic acid writhing method. Format: in vivo, mouse. The note with it: read-out: Analgesic Activity a ED50. The procedure:
a. Acetic acid writing method
DS male mice (20-23 g) are treated with an intraperitoneal injection of 0.1 ml/10 g of 0.6% acetic acid 30 minutes after oral administration of a test compound. The number of times of writhing for 10 minutes is counted and ED50 is calculated.
For orientation: Writhing tests count abdominal constrictions after an irritant is injected.

Data set [6] deals with SLC-Wistar female rats. Kind of data set: Analgesic activity c: Randall and Selitto method. Format: in vivo, rat. As to conditions: 2 h, read-out: Analgesic Activity c ED50. The procedure:
c. Randall and Selitto method A test compound is orally given SLC-Wistar female rats (150-170 g). Five minutes later 0.1 ml of 20% yeast suspension is subcutaneously injected into the plantar tissue of the foot.

Where [7] appears, read: rat, oral, 30 min before 3.7% formaldehyde s.c. in hind-paw, foot-licking for 50 minutes.
[8] abbreviates: mouse, oral, 30 min before 0.6% acetic acid i.p., writhing counted for 10 minutes.
Setting [9] is: rat, oral, 5 min before 20% yeast s.c. in foot, pain threshold at 120 minutes.

As a reminder, the LD50 is the dose at which mortality reaches 50%. For orientation: ED50 means the midpoint of the dose-response relation.

Each structure is given as a SMILES string. Like-named read-outs stand apart in the source and are kept apart here.

In data set [1], `CNCC1CCSc2[nH]c3ccccc3c21` (stereo not shown) [Comp. 1, 4-Methylaminomethyl-2,3,4,9-tetrahydrothiopyrano[2,3-b]indole] showed an LD50 at 360 h of 295 mg/kg. Also, the ED50 came out at 1.6 mg/kg in data set [2] (setting [7]), 4.2 mg/kg in data set [5] (setting [8]) and 8.4 mg/kg in data set [6] (setting [9]). The same compound registered an LD50 at 72 h in data set [3] of 409 mg/kg. The “Anti-inflammatory Activity” value in data set [4] stood at 66%.

Turning to `CNCC1CCSc2c1c1ccccc1n2C` (stereo not shown) [Comp. 2, 9-Methyl-4-methylaminomethyl-2,3,4,9-tetrahydrothiopyrano[2,3-b]indole], the figures for the ED50 in data set [2] (setting [7]), in data set [5] (setting [8]) and in data set [6] (setting [9]) were 0.54 mg/kg, 21.2 mg/kg and 17.8 mg/kg, respectively. Further, the LD50 at 72 h in data set [3] was roughly 750 mg/kg. For the same compound, the “Anti-inflammatory Activity” value in data set [4] came to 40%.

As for `CNCC1CCS(=O)(=O)c2[nH]c3ccccc3c21` (stereo not shown) [Comp. 3, 4-Methylaminomethyl-2,3,4,9-tetrahydrothiopyrano[2,3-b]indole S-dioxide], the values for the ED50 in data set [2] (setting [7]), in data set [5] (setting [8]) and in data set [6] (setting [9]) were 2.9 mg/kg, 11.7 mg/kg and 19.1 mg/kg, respectively. Further, the LD50 at 72 h in data set [3] was roughly 750 mg/kg. For the same compound, in data set [4], the “Anti-inflammatory Activity” value came out at 25%.

Take `CC(=O)n1c2c(c3ccccc31)C(CN(C)C)CCS2` (stereo not shown) [Comp. 4]: the ED50 was found to be 4.7 mg/kg in data set [2] (setting [7]), 21 mg/kg in data set [5] (setting [8]) and 15.9 mg/kg in data set [6] (setting [9]). The LD50 at 72 h in data set [3] is roughly 175 mg/kg. Also, in data set [4], the “Anti-inflammatory Activity” value is given as 44%.

Turning to `COc1ccc2c(c1)c(CC(=O)O)c(C)n2C(=O)c1ccc(Cl)cc1` [Idomethacin, reference compound], the LD50 at 360 h in data set [1] was found to be 14 mg/kg. The ED50 came to 65 mg/kg in data set [2] (Rattus norvegicus, po); 7 mg/kg in data set [5] (Mus musculus, po); 14 mg/kg in data set [6] (po). Moreover, the LD50 at 72 h in data set [3] turned out to be 17 mg/kg.

In data set [1], `COc1cc(C)nc(-n2nc(C)cc2OC)n1` [Mepirizole, reference compound] registered an LD50 at 360 h of 552 mg/kg. In addition, the ED50 in data set [2] (setting [7]) is 13 mg/kg; in data set [5] (setting [8]), 110 mg/kg; in data set [6] (setting [9]), 130 mg/kg. The LD50 at 72 h in data set [3] was 1150 mg/kg.
